The values below come from ChEMBL document CHEMBL1909046, “DrugMatrix in vitro pharmacology data”.

As usually defined, the IC50 is the concentration that inhibits the measured activity by half. By Ki is commonly meant a dissociation constant, usually derived from enzyme kinetics or from competition with a known ligand.

The target in test [1] is 5-hydroxytryptamine receptor 6 (Homo sapiens, UniProt P50406). Format: cell membranes, HeLa, Membrane. The following applies: for Ki: read-out: Ki. On all read-outs here: in other assays of this panel Not Active means under 50% inhibition at 10 µM.
5-hydroxytryptamine receptor 6, sequence (P50406 whole entry): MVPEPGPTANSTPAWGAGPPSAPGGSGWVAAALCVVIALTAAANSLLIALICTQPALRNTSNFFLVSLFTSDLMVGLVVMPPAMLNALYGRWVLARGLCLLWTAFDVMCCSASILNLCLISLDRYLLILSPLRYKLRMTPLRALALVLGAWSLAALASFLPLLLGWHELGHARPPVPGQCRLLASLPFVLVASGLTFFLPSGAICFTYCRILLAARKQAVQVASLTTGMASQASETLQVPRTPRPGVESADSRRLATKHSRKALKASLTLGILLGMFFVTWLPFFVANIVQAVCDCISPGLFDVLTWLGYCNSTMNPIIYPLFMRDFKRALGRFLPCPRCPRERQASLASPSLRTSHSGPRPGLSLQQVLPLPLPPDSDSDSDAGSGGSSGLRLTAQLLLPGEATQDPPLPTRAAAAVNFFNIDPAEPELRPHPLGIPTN
In another test the target is D(1A) dopamine receptor (Homo sapiens, UniProt P21728). In words: DRUGMATRIX: Dopamine D1 radioligand binding (ligand: [3H] SCH-23390). The class given is cell membranes, CHO, Membrane. The conditions noted are these: cho; Not Active = under 50% inhibition at 10 µM.
D(1A) dopamine receptor, sequence (P21728 whole entry): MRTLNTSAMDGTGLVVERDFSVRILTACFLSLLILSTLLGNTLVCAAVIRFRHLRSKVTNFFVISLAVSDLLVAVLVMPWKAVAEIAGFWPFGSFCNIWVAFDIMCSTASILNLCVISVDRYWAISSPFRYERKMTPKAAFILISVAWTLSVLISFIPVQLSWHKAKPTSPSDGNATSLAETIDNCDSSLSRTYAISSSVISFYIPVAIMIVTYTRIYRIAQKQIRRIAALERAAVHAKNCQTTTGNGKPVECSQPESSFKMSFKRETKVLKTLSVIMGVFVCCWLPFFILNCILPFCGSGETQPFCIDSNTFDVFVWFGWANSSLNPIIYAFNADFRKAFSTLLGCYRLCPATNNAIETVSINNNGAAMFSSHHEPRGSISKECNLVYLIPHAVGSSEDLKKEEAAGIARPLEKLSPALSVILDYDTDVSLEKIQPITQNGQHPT
Test [2] addresses T1, Cysteinyl leukotriene receptor 1 (Homo sapiens, UniProt Q9Y271).
T1 sequence (Q9Y271 whole entry): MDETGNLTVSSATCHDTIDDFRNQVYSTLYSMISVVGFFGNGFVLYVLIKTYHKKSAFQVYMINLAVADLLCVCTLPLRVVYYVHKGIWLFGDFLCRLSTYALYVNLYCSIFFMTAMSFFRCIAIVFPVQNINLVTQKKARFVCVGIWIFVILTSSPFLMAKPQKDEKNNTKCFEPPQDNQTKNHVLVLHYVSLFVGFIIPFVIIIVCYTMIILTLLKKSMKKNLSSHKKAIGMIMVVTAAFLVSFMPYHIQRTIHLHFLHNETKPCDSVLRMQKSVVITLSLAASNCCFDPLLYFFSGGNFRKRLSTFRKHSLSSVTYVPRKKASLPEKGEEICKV
The class given is cell membranes, CHO-K1, Membrane. The following applies: cho-k1.

The target in test [3] is T2, Muscarinic acetylcholine receptor M4 (Homo sapiens, UniProt P08173). Further: in other assays of this panel Not Active means under 50% inhibition at 10 µM.
T2 sequence (P08173 whole entry): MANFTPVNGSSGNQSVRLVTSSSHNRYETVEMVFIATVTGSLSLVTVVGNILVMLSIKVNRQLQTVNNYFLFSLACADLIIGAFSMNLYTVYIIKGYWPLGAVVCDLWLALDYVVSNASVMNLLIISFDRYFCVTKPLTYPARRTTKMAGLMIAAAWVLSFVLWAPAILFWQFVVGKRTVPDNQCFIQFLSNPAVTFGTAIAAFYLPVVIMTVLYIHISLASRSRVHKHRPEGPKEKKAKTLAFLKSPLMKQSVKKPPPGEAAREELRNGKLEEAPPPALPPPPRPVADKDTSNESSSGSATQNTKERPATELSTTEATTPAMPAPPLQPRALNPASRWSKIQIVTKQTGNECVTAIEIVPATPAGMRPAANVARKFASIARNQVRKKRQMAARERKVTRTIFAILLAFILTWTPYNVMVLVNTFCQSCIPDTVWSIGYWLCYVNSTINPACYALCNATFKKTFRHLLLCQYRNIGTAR
The class given is cell membranes, CHO-K1, Membrane. The following applies: for Ki: read-out: Ki.

The nature of test [4]: DRUGMATRIX: Phorbol Ester radioligand binding (ligand: [3H] PDBu). The class given is cell membranes, Mus musculus, ICR, Brain, Membrane. The conditions noted are these: Not Active = under 50% inhibition at 10 µM.
Test [5] concerns the target T3, Angiotensin-converting enzyme (Oryctolagus cuniculus, UniProt P12822).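 Further: enzymatic inhibition of angiotensin-converting enzyme measured with FAPGG as the substrate; in other assays of this panel Not Active means under 50% inhibition at 10 µM.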
T3 sequence (P12822 whole entry): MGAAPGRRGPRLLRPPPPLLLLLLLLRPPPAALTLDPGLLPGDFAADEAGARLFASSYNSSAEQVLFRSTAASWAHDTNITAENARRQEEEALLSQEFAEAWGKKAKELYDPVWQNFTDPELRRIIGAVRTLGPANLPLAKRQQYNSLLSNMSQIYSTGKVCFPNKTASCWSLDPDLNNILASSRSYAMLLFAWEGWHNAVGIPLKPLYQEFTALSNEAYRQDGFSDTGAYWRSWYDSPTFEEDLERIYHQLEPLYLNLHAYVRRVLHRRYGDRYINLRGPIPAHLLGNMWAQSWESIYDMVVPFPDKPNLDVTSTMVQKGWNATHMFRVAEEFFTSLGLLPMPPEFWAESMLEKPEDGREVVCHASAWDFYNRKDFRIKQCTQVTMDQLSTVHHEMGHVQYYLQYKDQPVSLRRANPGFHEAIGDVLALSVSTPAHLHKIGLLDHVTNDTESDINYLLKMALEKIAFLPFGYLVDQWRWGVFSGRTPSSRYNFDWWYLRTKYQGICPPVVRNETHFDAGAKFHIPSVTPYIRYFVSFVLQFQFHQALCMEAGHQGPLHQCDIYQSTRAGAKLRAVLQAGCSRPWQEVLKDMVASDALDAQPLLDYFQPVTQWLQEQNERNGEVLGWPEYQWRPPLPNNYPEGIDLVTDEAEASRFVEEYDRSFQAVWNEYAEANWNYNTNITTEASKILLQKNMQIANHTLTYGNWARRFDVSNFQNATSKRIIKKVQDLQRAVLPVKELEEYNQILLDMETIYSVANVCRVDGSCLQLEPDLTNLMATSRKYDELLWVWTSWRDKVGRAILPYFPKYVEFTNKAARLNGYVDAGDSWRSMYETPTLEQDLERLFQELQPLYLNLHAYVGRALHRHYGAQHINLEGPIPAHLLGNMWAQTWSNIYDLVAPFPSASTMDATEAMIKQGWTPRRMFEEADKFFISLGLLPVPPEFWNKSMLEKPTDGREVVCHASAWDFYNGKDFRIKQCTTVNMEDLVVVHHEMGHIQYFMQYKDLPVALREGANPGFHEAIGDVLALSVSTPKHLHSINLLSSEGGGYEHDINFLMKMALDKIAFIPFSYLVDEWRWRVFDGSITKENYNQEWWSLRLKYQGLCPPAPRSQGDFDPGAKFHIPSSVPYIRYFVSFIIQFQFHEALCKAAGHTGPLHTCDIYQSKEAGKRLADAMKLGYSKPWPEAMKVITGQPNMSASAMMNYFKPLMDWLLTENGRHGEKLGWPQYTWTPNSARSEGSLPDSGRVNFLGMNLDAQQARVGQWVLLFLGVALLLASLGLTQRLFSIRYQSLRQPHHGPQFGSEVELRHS
The class given is tissue-based, Lung.

Take `Cc1c(C)c2c(c(C)c1O)CCC(C)(COc1ccc(CC3SC(=O)NC3=O)cc1)O2` (stereo unspecified) [TROGLITAZONE]: the half-inhibitory concentration (IC50) result (in test [1] (hela); at D(1A) dopamine receptor; in test [2]; in test [3] (cho-k1); in test [4]; in test [5]) was “Not Active” in each case. The Ki entry in test [4] was “Not Active”.

In the case of `c1ccc([C@H]2CN3CCSC3=N2)cc1` [LEVAMISOLE], the IC50 result (in test [1] (hela); on D(1A) dopamine receptor; in test [2]; in test [3] (cho-k1); in test [4]; in test [5]) was “Not Active” throughout. In addition, the Ki result in test [4] is “Not Active”.

For `CC[C@]1(O)C[C@H]2CN(CCc3c([nH]c4ccccc34)[C@@](C(=O)OC)(c3cc4c(cc3OC)N(C=O)[C@H]3[C@@](O)(C(=O)OC)[C@H](OC(C)=O)[C@]5(CC)C=CCN6CC[C@]43[C@@H]65)C2)C1` [VINCRISTINE], the IC50 entry (in test [1] (hela); on D(1A) dopamine receptor; in test [2]; in test [3] (cho-k1); in test [4]; in test [5]) was “Not Active” in each case. In test [4], the Ki entry is “Not Active”.

For the compound `O=c1ncn2nc(Sc3ccc(F)cc3F)ccc2c1-c1c(Cl)cccc1Cl` [NEFLAMAPIMOD], the IC50 result (in test [1] (hela); at D(1A) dopamine receptor; in test [2]; in test [3] (cho-k1); in test [4]; in test [5]) was “Not Active” throughout. In test [4], the Ki result is recorded as “Not Active”.

With `NS(=O)(=O)c1cc2c(cc1Cl)NC(C(Cl)Cl)NS2(=O)=O` (stereo unspecified) [TRICHLORMETHIAZIDE], the IC50 entry (in test [1] (hela); at D(1A) dopamine receptor; in test [2]; in test [3] (cho-k1); in test [4]; in test [5]) was “Not Active” each time. The Ki entry in test [4] is “Not Active”.

As to `CCCOc1ccccc1-c1nc2nn[nH]c2c(=O)[nH]1` [ZAPRINAST], the IC50 result (in test [1] (hela); at D(1A) dopamine receptor; in test [2]; in test [3] (cho-k1); in test [4]; in test [5]) was “Not Active” each time. In test [4], the Ki result is “Not Active”.

Consider `CC/C(=C(\c1ccccc1)c1ccc(OCCN(C)C)cc1)c1ccccc1` [TAMOXIFEN], for which the IC50 in test [1] (read-out: IC50) is 2680 nM; in test [2] it was “Not Active”; in test [3] (read-out: IC50), 4820 nM; in test [5], “Not Active”. Also, the Ki in test [1] was determined as 1240 nM; in test [3], 672 nM.

Consider `CN1CCN(CCCN2c3ccccc3Sc3ccc(Cl)cc32)CC1` [PROCHLORPERAZINE], for which the IC50 in test [1] (read-out: IC50) is 267 nM; in test [2] it was “Not Active”; in test [3] (read-out: IC50) it was 1360 nM; in test [5], “Not Active”. Besides, the Ki was 124 nM in test [1] and 190 nM in test [3].

In the case of `CC(C)N1CCN(c2ccc(OCC3COC(Cn4cncn4)(c4ccc(Cl)cc4Cl)O3)cc2)CC1` (stereo unspecified) [TERCONAZOLE], the IC50 result is “Not Active” in test [1] (hela); “Not Active” in test [2]; 13700 nM in test [3] (read-out: IC50); “Not Active” in test [4]; “Not Active” in test [5]. Further, the Ki in test [3] was 1910 nM; in test [4] it was “Not Active”.

As for `Cc1nc2n(c(=O)c1CCN1CCC(c3noc4cc(F)ccc34)CC1)CCCC2` [RISPERIDONE], the IC50 entry in test [1] (hela), in test [2], in test [3] (cho-k1) and in test [5] was “Not Active” in each case.

For the compound `CCCCc1oc2ccccc2c1C(=O)c1cc(I)c(OCCN(CC)CC)c(I)c1` [AMIODARONE], the IC50 in test [1] (read-out: IC50) was 19400 nM; in test [2], “Not Active”; in test [3] (read-out: IC50), 3630 nM; in test [5], “Not Active”. Further, the results for the Ki in test [1] and in test [3] were 9030 nM and 506 nM, respectively.

For `N[C@@H](Cc1cc(I)c(Oc2ccc(O)c(I)c2)c(I)c1)C(=O)O` [LIOTHYRONINE], the IC50 result (in test [1] (hela); on D(1A) dopamine receptor; in test [2]; in test [3] (cho-k1); in test [5]) was “Not Active” each time.
